Molecular target: γ-secretase (Homo sapiens, UniProt P49768)
Assay: Substrate specificity: FLAG-Aβ secretion by HEK293 cells transfected with FLAG APP C99, anti-FLAG immunoprecipitation/western blot
Type: cell-based
Settings: 0.2 μmol/L; for activity at 0.2 µM: HEK293, 24 h, FLAG APP C99, negative control = 100%, read-out: (i) Aβ secretion rate of HEK293 cells
Method: Of families constituting human Alcadein (hereinafter, referred to as Alc) known as a substrate for γ-secretase to colocalize with APP in brain neurons, an artificial Alcα fragment (hereinafter, referred to as Alcα C150) whose first extracellular cleavage site and γ-secretase cleavage site were determined was used to study the substrate specificity of the γ-secretase inhibitor of the present invention. β-Alcα produced from a first cleavage construct of Alcα cannot be quantified by sELISA used in Aβ measurement. Therefore, proteins with an attached FLAG tag at the N termini of first cleavage constructs of Alcα and of C99 were expressed by cells. FLAG-Aβ-like peptides secreted into a medium were collected by immunoprecipitation using anti-FLAG antibodies and detected by western blotting using the antibodies. A specific method thereof is shown below.
HEK293 cells (ATCC) (1×10^7 cells/10 cm dish) cultured in 6 ml of 10% FCS-containing DMEM (Wako Pure Chemical Industries, Ltd.) were transfected with FLAG APP C99 pcDNA3.1 (the nucleotide sequence of its coding region is shown in SEQ ID NO: 2) (J. Biol. Chem., 2003, 278, 49448-49458 (which was prepared from pcDNA3-APPC99)) or with FLAG Alcα C150 pcDNA3.1 (the nucleotide sequence of its coding region is shown in SEQ ID NO: 3) (J. Biol. Chem., 2004, 279, 24343-24354 (which was the same as pcDNA3AlcαΔE)) using Lipofectamine 2000 (Invitrogen Corp.) according to the protocol included in the reagent. Each inhibitor and a positive control (γ-Secretase Inhibitor IX (DAPT)) (Calbiochem Contact Information) were separately added at a concentration of 0.2 or 2 μmol/L. The same dose of DMSO (Wako Pure Chemical Industries, Ltd.) thereas was added as a negative control. 24 hours later, the culture supernatants were collected, and samples were preliminarily purified using beads (100 μL of 50% (v/v) Protein-G Sepharose (GE Healthcare)). Then, 15 μL of 50% (v/v) anti-FLAG antibody M2 beads (Sigma-Aldrich Corp.) were added thereto, and the samples were incubated at 4° C. for 1 hour. The beads were collected by centrifugation and washed three times with a buffer (10 mM Tris-HCl [pH 8.0], 140 mM NaCl, 0.1% n-octyl glucoside, 0.025% sodium azide), and Aβ and β-Alcα in the medium were collected. The proteins were subjected to SDS-PAGE using a 15% Tris-Tricine gel (Anal Biochem., 1987, 166 (2), 368-379) and then transferred to a membrane. The membrane was boiled for 5 minutes in PBS. Then, anti-FLAG M2 antibodies (5 μg/ml) (Sigma-Aldrich Corp.) were added thereto, and the membrane was incubated, followed by detection using a western blotting detection reagent ECL (GE Healthcare). This signal was quantified using Versa-doc system (Bio-Rad Laboratories, Inc.) to calculate protein secretion rates (the protein secretion rate of the negative control is defined as 100%).

| SMILES | (i)/(ii) ratio, Aβ / β-Alcα secretion rates | cleavage of APP-C99, in words | activity at 0.2 µM [%] |
| --- | --- | --- | --- |
| CCCCNC(=O)C(CCSC)NC(=O)C(NC(=O)C(CC(C)C)CC(O)C(NC(=O)OC(C)(C)C)C(C)O)C(C)C [TLVM-7, [5S-(tert-butoxycarbonylamino)-4R,6R-dihydroxy-2R-(2-methylpropyl)heptanoyl]-L-valyl-L-methionine n-butylamide] | 0.30 | specifically inhibited | 36 |
| CSCCC(NC(=O)C(NC(=O)C(CC(C)C)CC(O)C(NC(=O)OC(C)(C)C)C(C)O)C(C)C)C(=O)NCc1ccc(F)cc1 [TLVM-9, [5S-(tert-butoxycarbonylamino)-4R,6R-dihydroxy-2R-(2-methylpropyl)heptanoyl]-L-valyl-L-methionine 4-fluorobenzylamide] | 0.27 | specifically inhibited | 43 |
| CSCCC(NC(=O)C(NC(=O)C(CC(C)C)CC(O)C(NC(=O)OC(C)(C)C)C(C)O)C(C)C)C(=O)NC(C)c1ccccc1 [TLVM-8, [5S-(tert-butoxycarbonylamino)-4R,6R-dihydroxy-2R-(2-methylpropyl)heptanoyl]-L-valyl-L-methionine (S)-α-methylbenzylamide] | 0.27 | specifically inhibited | 32 |
| CSCCC(NC(=O)C(NC(=O)C(CC(C)C)CC(O)C(NC(=O)OC(C)(C)C)C(C)O)C(C)C)C(=O)NCc1ccccc1 [TLVM-5, [5S-(tert-butoxycarbonylamino)-4R,6R-dihydroxy-2R-(2-methylpropyl)heptanoyl]-L-valyl-L-methionine benzylamide] | 0.29 | specifically inhibited | 41 |

Reference: patent publication US8501813B2, “γ-secretase inhibitor” (Kabushiki Kaisha Yakult Honsha, priority 2007, dated 2013)
